# According to US12473289B2, “Heterocyclic compounds as delta-5 desaturase inhibitors and methods of use” (Amgen Inc., priority 2019, dated 2025):
# Biological target: Delta-5-Desaturase (D5D) (Homo sapiens (Human), UniProt O60427)
# Test: In vitro measurement of Delta-5-Desaturase inhibitory activity using DGLA-CoA and Arachidonyl-CoA mass spectrometric assays
# Type: biochemical
# Details: membrane preparations of D5D-overexpressing HEK293 6E cells; averaged over at least two independent runs
# In short: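 Membranes from D5D-overexpressing HEK293 6E cells (10 μg/mL final) in Tris pH 7.5 with MgCl2, octyl glucoside and TCEP were mixed 1:1 with substrate solution (0.01 mM DGLA, 0.25 mM NADH, 0.25 mM ATP, 0.05 mM CoA) for 1 h at ambient temperature. RapidFire SPE-MS/MS MRM; IC50 by 4-parameter fit, ≥2 runs.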
# Delta-5-Desaturase (D5D), sequence (O60427 whole entry, species assumed): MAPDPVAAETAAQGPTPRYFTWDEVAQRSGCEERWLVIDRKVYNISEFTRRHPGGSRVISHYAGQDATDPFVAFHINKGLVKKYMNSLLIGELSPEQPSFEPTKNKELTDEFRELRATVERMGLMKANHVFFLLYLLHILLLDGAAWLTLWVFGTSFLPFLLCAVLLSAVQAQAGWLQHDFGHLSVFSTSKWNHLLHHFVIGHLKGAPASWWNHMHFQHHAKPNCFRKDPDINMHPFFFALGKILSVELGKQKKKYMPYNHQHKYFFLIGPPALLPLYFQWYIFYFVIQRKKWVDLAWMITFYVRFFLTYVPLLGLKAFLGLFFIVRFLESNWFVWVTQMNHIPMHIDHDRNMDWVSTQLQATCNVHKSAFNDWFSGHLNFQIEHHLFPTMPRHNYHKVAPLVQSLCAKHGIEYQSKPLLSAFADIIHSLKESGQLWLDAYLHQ
row,Compound,IC50 [nM]
1,"COc1ccn2c(=O)c(-c3ncn(CC(F)(F)C(F)(F)F)n3)c(C(F)(F)F)nc2c1 [Example 54, 8-Methoxy-3-[1-(2,2,3,3,3-pentafluoropropyl)-1H-1,2,4-triazol-3-yl]-2-(trifluoromethyl)-4H-pyrido[1,2-a]pyrimidin-4-one]",> 67000
2,"COc1ccn2c(=O)c(-c3cc(CCC(F)(F)F)no3)c(C(F)(F)F)nc2c1 [Example 55, 8-Methoxy-2-(trifluoromethyl)-3-[3-(3,3,3-trifluoropropyl)-1,2-oxazol-5-yl]-4H-pyrido[1,2-a]pyrimidin-4-one]",8.7
3,"COc1ccn2c(=O)c(-c3cnc(OCC(F)(F)F)s3)c(C(F)(F)F)nc2c1 [Example 56, 8-Methoxy-3-[2-(2,2,2-trifluoroethoxy)-1,3-thiazol-5-yl]-2-(trifluoromethyl)-4H-pyrido[1,2-a]pyrimidin-4-one]",21.5
4,"COc1ccn2c(=O)c(-c3ncc(OCC(F)(F)F)s3)c(C(F)(F)F)nc2c1 [Example 57, 8-methoxy-3-[5-(2,2,2-trifluoroethoxy)-1,3-thiazol-2-yl]-2-(trifluoromethyl)-4H-pyrido[1,2-a]pyrimidin-4-one]",1150
5,"COc1ccn2c(=O)c(-c3ncc(CCC(F)(F)F)s3)c(C(F)(F)F)nc2c1 [Example 58, 8-Methoxy-2-(trifluoromethyl)-3-[5-(3,3,3-trifluoropropyl)-1,3-thiazol-2-yl]-4H-pyrido[1,2-a]pyrimidin-4-one]",594
6,"COc1ccn2c(=O)c(-n3cnc(CCC(F)(F)F)c3)c(C(F)(F)F)nc2c1 [Example 59, 8-Methoxy-2-(trifluoromethyl)-3-[4-(3,3,3-trifluoropropyl)-1H-imidazol-1-yl]-4H-pyrido[1,2-a]pyrimidin-4-one]",365
7,"COc1ccn2c(=O)c(-c3cc(CC(F)(F)C(F)(F)F)no3)c(C(F)(F)F)nc2c1 [Example 60, 8-Methoxy-3-[3-(2,2,3,3,3-pentafluoropropyl)-1,2-oxazol-5-yl]-2-(trifluoromethyl)-4H-pyrido[1,2-a]pyrimidin-4-one]",74.9
8,"CCCc1cc(-c2c(C(F)(F)F)nc3cc(OC)ccn3c2=O)no1 [Example 61, 8-Methoxy-3-(5-propyl-1,2-oxazol-3-yl)-2-(trifluoromethyl)-4H-pyrido[1,2-a]pyrimidin-4-one]",46.9
9,"COc1ccn2c(=O)c(-c3cccc(OCC(F)(F)F)c3)c(C(F)(F)F)nc2c1 [Example 62, 8-Methoxy-3-[3-(2,2,2-trifluoroethoxy)phenyl]-2-(trifluoromethyl)-4H-pyrido[1,2-a]pyrimidin-4-one]",> 67000
10,"Cn1c(=O)c(F)cn2c(=O)c(-c3cnn(CC(F)(F)C(F)(F)F)c3)c(C(F)(F)F)nc12 [Example 63, 3-Fluoro-1-methyl-7-[1-(2,2,3,3,3-pentafluoropropyl)-1H-pyrazol-4-yl]-8-(trifluoromethyl)-1H,2H,6H-[1,3]diazino[1,2-a]pyrimidine-2,6-dione]",43.6
11,"CN1CCn2c(nc(C(F)(F)F)c(-c3cnn(CC(F)(F)C(F)(F)F)c3)c2=O)C1 [Example 64, 8-Methyl-3-[1-(2,2,3,3,3-pentafluoropropyl)-1H-pyrazol-4-yl]-2-(trifluoromethyl)-4H,6H,7H,8H,9H-pyrimido[1,2-a]pyrazin-4-one]",540
12,"O=c1ccn2c(=O)c(-c3cnn(CC(F)(F)C(F)(F)F)c3)c(C(F)(F)F)nc2n1CCl [Example 65, 1-(Chloromethyl)-7-[1-(2,2,3,3,3-pentafluoropropyl)-1H-pyrazol-4-yl]-8-(trifluoromethyl)-1H,2H,6H-pyrimido[1,2-a][1,3]diazine-2,6-dione]",90.5
13,"COc1nc2nc(C(F)(F)F)c(-c3cnn(CC(F)(F)C(F)(F)F)c3)c(=O)n2cc1Cl [Example 66, 7-Chloro-8-methoxy-3-[1-(2,2,3,3,3-pentafluoropropyl)-1H-pyrazol-4-yl]-2-(trifluoromethyl)-4H-[1,3]diazino[1,2-a]pyrimidin-4-one]",111
14,"Cn1c(=O)ccn2c(=O)c(-c3cnn(CC(F)(F)C(F)(F)F)c3)c(C(F)(F)F)nc12 [Example 67, 1-Methyl-7-[1-(2,2,3,3,3-pentafluoropropyl)-1H-pyrazol-4-yl]-8-(trifluoromethyl)-1H,2H,6H-[1,3]diazino[1,2-a]pyrimidine-2,6-dione]",32.5
15,"O=c1ccn2c(=O)c(-c3cnn(CC(F)(F)C(F)(F)F)c3)c(C(F)(F)F)nc2n1CF [Example 68, 1-(Fluoromethyl)-7-[1-(2,2,3,3,3-pentafluoropropyl)-1H-pyrazol-4-yl]-8-(trifluoromethyl)-1H,2H,6H-[1,3]diazino[1,2-a]pyrimidine-2,6-dione]",80.7
16,"COc1ccn2c(=O)c(-c3cnn(C[C@H]4CC4(F)F)c3)c(C(F)(F)F)nc2c1 [Example 69, 3-(1-{[(1R)-2,2-Difluorocyclopropyl]methyl}-1H-pyrazol-4-yl)-8-methoxy-2-(trifluoromethyl)-4H-pyrido[1,2-a]pyrimidin-4-one]",18.2
17,"COc1ccn2c(=O)c(-c3cnn(C[C@@H]4CC4(F)F)c3)c(C(F)(F)F)nc2c1 [Example 70, 3-(1-{[(1S)-2,2-Difluorocyclopropyl]methyl}-1H-pyrazol-4-yl)-8-methoxy-2-(trifluoromethyl)-4H-pyrido[1,2-a]pyrimidin-4-one]",10.5
18,"COc1cc2nc(C(F)(F)F)c(-c3cnn(C[C@H]4CC4(F)F)c3)c(=O)n2cc1F [Example 71, 3-(1-(((1R)-2,2-difluorocyclopropyl)methyl)-1H-pyrazol-4-yl)-7-fluoro-8-methoxy-2-(trifluoromethyl)-4H-pyrido[1,2-a]pyrimidin-4-one]",31.7
